Laboratory results reported in patent US20170334899A1, “AMINO-SUBSTITUTED ISOTHIAZOLES” (Bayer Pharma Aktiengesellschaft, priority 2014, published 2017).

Target: T1, human kinase Mps-1 (Homo sapiens, UniProt P33981)
T1 construct: N-terminally GST-tagged human full length recombinant Mps-1 kinase; GST (N); purchased Invitrogen, Karslruhe, Germany PV4071
T1 sequence (P33981 1-857): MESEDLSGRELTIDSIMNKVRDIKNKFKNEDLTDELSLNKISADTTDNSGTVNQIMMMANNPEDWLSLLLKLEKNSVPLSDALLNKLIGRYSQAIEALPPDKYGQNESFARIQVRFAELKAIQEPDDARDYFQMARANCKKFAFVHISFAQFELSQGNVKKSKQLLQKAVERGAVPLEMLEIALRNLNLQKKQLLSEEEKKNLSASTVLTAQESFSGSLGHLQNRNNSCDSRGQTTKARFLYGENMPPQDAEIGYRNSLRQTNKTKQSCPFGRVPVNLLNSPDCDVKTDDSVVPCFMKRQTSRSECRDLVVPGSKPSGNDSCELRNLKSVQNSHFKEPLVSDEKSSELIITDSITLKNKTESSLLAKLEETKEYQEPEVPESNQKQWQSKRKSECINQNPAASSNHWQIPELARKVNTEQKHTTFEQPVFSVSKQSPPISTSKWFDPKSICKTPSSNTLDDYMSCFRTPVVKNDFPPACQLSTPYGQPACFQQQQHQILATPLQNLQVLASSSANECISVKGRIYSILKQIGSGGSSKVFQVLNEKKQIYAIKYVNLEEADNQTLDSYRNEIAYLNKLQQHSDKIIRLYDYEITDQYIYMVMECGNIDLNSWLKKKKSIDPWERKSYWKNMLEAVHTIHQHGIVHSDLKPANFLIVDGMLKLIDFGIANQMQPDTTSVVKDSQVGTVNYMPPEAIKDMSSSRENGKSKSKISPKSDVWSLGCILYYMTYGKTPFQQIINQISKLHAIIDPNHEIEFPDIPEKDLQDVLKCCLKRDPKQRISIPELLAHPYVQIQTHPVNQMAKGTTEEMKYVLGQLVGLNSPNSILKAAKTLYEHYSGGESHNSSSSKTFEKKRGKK
Experiment: Mps-1 kinase assay (TR-FRET)
Type: biochemical
Conditions: Mps-1 TR-FRET kinase assay; avg; read-out: Mps1 avg (IC50 [mol/l])
Summary of the method: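 Inhibition normalised between uninhibited reaction (0%) and enzyme-free wells (100%), using the blank-corrected TR-FRET 665/620 nm ratio after EDTA stop. Reaction: ~0.5 nM GST-Mps-1 full length, 10 μM ATP, 1 μM biotin-peptide, 60 min at 22 °C, after 15 min compound pre-binding, pH 7.7.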

SMILES: Cc1nsc(Nc2cnc(C(F)(F)F)cn2)c1C(=O)Nc1ccc(OCC2CCN(CC(F)(F)F)CC2)nc1 [Example 346, 3-methyl-N-(6-{[1-(2,2,2-trifluoroethyl)piperidin-4-yl]methoxy}pyridin-3-yl)-5-{[5-(trifluoromethyl)pyrazin-2-yl]amino}-1,2-thiazole-4-carboxamide]
- IC50: > 20 µM

SMILES: Cc1nsc(Nc2cnc(C(F)(F)F)cn2)c1C(=O)Nc1ccc(OCC2CCN(CCC(F)(F)F)CC2)nc1 [Example 347, 3-methyl-5-{[5-(trifluoromethyl)pyrazin-2-yl]amino}-N-(6-{[1-(3,3,3-trifluoropropyl)piperidin-4-yl]methoxy}pyridin-3-yl)-1,2-thiazole-4-carboxamide]
- IC50: > 20 µM

SMILES: Cc1nsc(Nc2cnc(C(F)(F)F)cn2)c1C(=O)Nc1ccc(OCCN(C)CCF)nc1 [Example 348, N-(6-{2-[(2-fluoroethyl)(methyl)amino]ethoxy}pyridin-3-yl)-3-methyl-5-{[5-(trifluoromethyl)pyrazin-2-yl]amino}-1,2-thiazole-4-carboxamide]
- IC50: ≥ 20 µM

SMILES: Cc1nsc(Nc2cnc(C(F)(F)F)cn2)c1C(=O)Nc1ccc(OCCN(C)CC(F)F)nc1 [Example 349, N-(6-{2-[(2,2-difluoroethyl)(methyl)amino]ethoxy}pyridin-3-yl)-3-methyl-5-{[5-(trifluoromethyl)pyrazin-2-yl]amino}-1,2-thiazole-4-carboxamide]
- IC50: ≥ 20 µM

SMILES: Cc1nsc(Nc2cnc(C(F)(F)F)cn2)c1C(=O)Nc1ccc(OCCN(C)CC(F)(F)F)nc1 [Example 350, 3-methyl-N-(6-{2-[methyl(2,2,2-trifluoroethyl)amino]ethoxy}pyridin-3-yl)-5-{[5-(trifluoromethyl)pyrazin-2-yl]amino}-1,2-thiazole-4-carboxamide]
- IC50: ≥ 20 µM

SMILES: Cc1nsc(Nc2cnc(C(F)(F)F)cn2)c1C(=O)Nc1ccc(OCCN(C)CCC(F)(F)F)nc1 [Example 351, 3-methyl-N-(6-{2-[methyl(3,3,3-trifluoropropyl)amino]ethoxy}pyridin-3-yl)-5-{[5-(trifluoromethyl)pyrazin-2-yl]amino}-1,2-thiazole-4-carboxamide]
- IC50: > 20 µM

SMILES: Cc1nsc(Nc2cnc(C(F)(F)F)cn2)c1C(=O)Nc1ccc(OCCCN(C)CCF)nc1 [Example 352, N-(6-{3-[(2-fluoroethyl)(methyl)amino]propoxy}pyridin-3-yl)-3-methyl-5-{[5-(trifluoromethyl)pyrazin-2-yl]amino}-1,2-thiazole-4-carboxamide]
- IC50: > 20 µM

SMILES: Cc1nsc(Nc2cnc(C(F)(F)F)cn2)c1C(=O)Nc1ccc(OCCCN(C)CC(F)F)nc1 [Example 353, N-(6-{3-[(2,2-difluoroethyl)(methyl)amino]propoxy}pyridin-3-yl)-3-methyl-5-{[5-(trifluoromethyl)pyrazin-2-yl]amino}-1,2-thiazole-4-carboxamide]
- IC50: 19 µM

SMILES: Cc1nsc(Nc2cnc(C(F)(F)F)cn2)c1C(=O)Nc1ccc(OCCCN(C)CC(F)(F)F)nc1 [Example 354, 3-methyl-N-(6-{3-[methyl(2,2,2-trifluoroethyl)amino]propoxy}pyridin-3-yl)-5-{[5-(trifluoromethyl)pyrazin-2-yl]amino}-1,2-thiazole-4-carboxamide]
- IC50: ≥ 20 µM

SMILES: Cc1nsc(Nc2cnc(C(F)(F)F)cn2)c1C(=O)Nc1ccc(OCCCN(C)CCC(F)(F)F)nc1 [Example 355, 3-methyl-N-(6-{3-[methyl(3,3,3-trifluoropropyl)amino]propoxy}pyridin-3-yl)-5-{[5-(trifluoromethyl)pyrazin-2-yl]amino}-1,2-thiazole-4-carboxamide]
- IC50: ≥ 20 µM

SMILES: Cc1nsc(Nc2cnc(C(F)(F)F)cn2)c1C(=O)Nc1ccc(CCC2CCN(CC(F)F)CC2)nc1 [Example 356, N-(6-{2-[1-(2,2-difluoroethyl)piperidin-4-yl]ethyl}pyridin-3-yl)-3-methyl-5-{[5-(trifluoromethyl)pyrazin-2-yl]amino}-1,2-thiazole-4-carboxamide]
- IC50: > 20 µM

SMILES: Cc1nsc(Nc2cnc(C(F)(F)F)cn2)c1C(=O)Nc1ccc(C2CCN(CC(F)F)CC2)nc1 [Example 357, N-{6-[1-(2,2-difluoroethyl)piperidin-4 yl]pyridin-3-yl}-3-methyl-5-{[5-(trifluoromethyl)pyrazin-2-yl]amino}-1,2-thiazole-4-carboxamide]
- IC50: > 20 µM

SMILES: Cc1nsc(Nc2cnc(C(F)(F)F)cn2)c1C(=O)Nc1ccc(C2CCN(CC(F)(F)F)CC2)nc1 [Example 358, 3-methyl-N-{6-[1-(2,2,2-trifluoroethyl)piperidin-4-yl]pyridin-3-yl}-5-{[5-(trifluoromethyl)pyrazin-2-yl]amino}-1,2-thiazole-4-carboxamide]
- IC50: > 20 µM

SMILES: Cc1nsc(Nc2cnc(C(F)(F)F)cn2)c1C(=O)Nc1ccc(N2CCN(CC(F)F)CC2)nc1 [Example 359, N-{6-[4-(2,2-difluoroethyl)piperazin-1-yl]pyridin-3-yl}-3-methyl-5-{[5-(trifluoromethyl)pyrazin-2-yl]amino}-1,2-thiazole-4-carboxamide]
- IC50: > 20 µM

SMILES: Cc1nsc(Nc2cnc(C(F)(F)F)cn2)c1C(=O)Nc1ccc(N2CCN(CC(F)(F)F)CC2)nc1 [Example 360, 3-methyl-N-{6-[4-(2,2,2-trifluoroethyl)piperazin-1-yl]pyridin-3-yl}-5-{[5-(trifluoromethyl)pyrazin-2-yl]amino}-1,2-thiazole-4-carboxamide]
- IC50: > 20 µM

SMILES: Cc1nsc(Nc2cnc(C(F)(F)F)cn2)c1C(=O)Nc1ccc(N2CCN(CCC(F)(F)F)CC2)nc1 [Example 361, 3-methyl-5-{[5-(trifluoromethyl)pyrazin-2-yl]amino}-N-{6-[4-(3,3,3-trifluoropropyl)piperazin-1-yl]pyridin-3-yl}-1,2-thiazole-4-carboxamide]
- IC50: > 20 µM

SMILES: Cc1nsc(Nc2cnc(C(F)(F)F)cn2)c1C(=O)Nc1ccc(O[C@H]2CCN(CC(F)F)C[C@@H]2F)nc1 [Example 362]
- IC50: > 20 µM

SMILES: Cc1nsc(Nc2cnc(C(F)(F)F)cn2)c1C(=O)Nc1ccc(O[C@H]2CCN(CC(F)(F)F)C[C@@H]2F)nc1 [Example 363, N-(6-{[(3S,4S)-3-fluoro-1-(2,2,2-trifluoroethyl)piperidin-4-yl]oxy}pyridin-3-yl)-3-methyl-5-{[5-(trifluoromethyl)pyrazin-2-yl]amino}-1,2-thiazole-4-carboxamide]
- IC50: > 20 µM

SMILES: Cc1nsc(Nc2cnc(C(F)(F)F)cn2)c1C(=O)Nc1ccc(O[C@H]2CCN(CCC(F)(F)F)C[C@@H]2F)nc1 [Example 364, N-(6-{[(3S,4S)-3-fluoro-1-(3,3,3-trifluoropropyl)piperidin-4-yl]oxy}pyridin-3-yl)-3-methyl-5-{[5-(trifluoromethyl)pyrazin-2-yl]amino}-1,2-thiazole-4-carboxamide]
- IC50: > 20 µM

SMILES: CCN1CC[C@H](Oc2ccc(NC(=O)c3c(C)nsc3Nc3cnc(C(F)(F)F)cn3)cn2)[C@@H](F)C1 [Example 365, N-(6-{[(3S,4S)-1-ethyl-3-fluoropiperidin-4-yl]oxy}pyridin-3-yl)-3-methyl-5-{[5-(trifluoromethyl)pyrazin-2-yl]amino}-1,2-thiazole-4-carboxamide]
- IC50: > 20 µM

SMILES: Cc1nsc(Nc2cnc(C(F)(F)F)cn2)c1C(=O)Nc1ccc(O[C@@H]2CCN(CC(F)F)C[C@H]2F)nc1 [Example 366, N-(6-{[(3R,4R)-1-(2,2-difluoroethyl)-3-fluoropiperidin-4-yl]oxy}pyridin-3-yl)-3-methyl-5-{[5-(trifluoromethyl)pyrazin-2-yl]amino}-1,2-thiazole-4-carboxamide]
- IC50: > 20 µM

SMILES: Cc1nsc(Nc2cnc(C(F)(F)F)cn2)c1C(=O)Nc1ccc(O[C@@H]2CCN(CC(F)(F)F)C[C@H]2F)nc1 [Example 367, N-(6-{[(3R,4R)-3-fluoro-1-(2,2,2-trifluoroethyl)piperidin-4-yl]oxy}pyridin-3-yl)-3-methyl-5-{[5-(trifluoromethyl)pyrazin-2-yl]amino}-1,2-thiazole-4-carboxamide]
- IC50: > 20 µM

SMILES: Cc1nsc(Nc2cnc(C(F)(F)F)cn2)c1C(=O)Nc1ccc(O[C@@H]2CCN(CCC(F)(F)F)C[C@H]2F)nc1 [Example 368, N-(6-{[(3R,4R)-3-fluoro-1-(3,3,3-trifluoropropyl)piperidin-4-yl]oxy}pyridin-3-yl)-3-methyl-5-{[5-(trifluoromethyl)pyrazin-2-yl]amino}-1,2-thiazole-4-carboxamide]
- IC50: > 20 µM

SMILES: CCN1CC[C@@H](Oc2ccc(NC(=O)c3c(C)nsc3Nc3cnc(C(F)(F)F)cn3)cn2)[C@H](F)C1 [Example 369, N-(6-{[(3R,4R)-1-ethyl-3-fluoropiperidin-4-yl]oxy}pyridin-3-yl)-3-methyl-5-{[5-(trifluoromethyl)pyrazin-2-yl]amino}-1,2-thiazole-4-carboxamide]
- IC50: > 20 µM
